In brackets after ≈: the same amount, converted by molar mass. Activity calls are given as the source filed them. The rule behind the calls is not given here.
Assays:
[1] = tested on: Monilinia laxa; test: Fungicidal activity against Monilinia laxa isolate MLBO3 assessed as reduction in mycelial growth rate at 25 degC after 4 days; type: functional, organism-based; settings: isolate MLBO3, 96 h
[2] = tested on: Monilinia laxa; test: Fungicidal activity against Monilinia laxa isolate B1 assessed as reduction in mycelial growth rate at 25 degC after 4 days; type: functional, organism-based; settings: isolate B1, 96 h
[3] = tested on: Monilinia laxa; test: Fungicidal activity against Monilinia laxa isolate MLB1 assessed as reduction in mycelial growth rate at 25 degC after 4 days; type: functional, organism-based; settings: isolate MLB1, 96 h
[4] = tested on: Monilinia laxa; test: Fungicidal activity against Monilinia laxa isolate MLK4 assessed as reduction in mycelial growth rate at 1 to 10 ug/ml at 31 degC after 5 days; type: functional, organism-based
[5] = tested on: Monilinia laxa; test: Fungicidal activity against Monilinia laxa isolate MLK1 assessed as reduction in mycelial growth rate at 1 to 10 ug/ml at 31 degC after 5 days; type: functional, organism-based
[6] = tested on: Monilinia laxa; test: Fungicidal activity against Monilinia laxa isolate MLKS1 assessed as reduction in mycelial growth rate at 1 to 10 ug/ml at 31 degC after 5 days; type: functional, organism-based
[7] = tested on: Monilinia laxa; test: Fungicidal activity against Monilinia laxa isolate MLG7 assessed as reduction in mycelial growth rate at 1 to 10 ug/ml at 31 degC after 5 days; type: functional, organism-based
[8] = tested on: Monilinia laxa; test: Fungicidal activity against Monilinia laxa isolate MLG4 assessed as reduction in mycelial growth rate at 1 to 10 ug/ml at 31 degC after 5 days; type: functional, organism-based
[9] = tested on: Monilinia laxa; test: Fungicidal activity against Monilinia laxa isolate MLC5 assessed as reduction in mycelial growth rate at 1 to 10 ug/ml at 31 degC after 5 days; type: functional, organism-based
[10] = tested on: Monilinia laxa; test: Fungicidal activity against Monilinia laxa isolate MLC3 assessed as reduction in mycelial growth rate at 1 to 10 ug/ml at 31 degC after 5 days; type: functional, organism-based
[11] = tested on: Monilinia laxa; test: Fungicidal activity against Monilinia laxa isolate MLA1 assessed as mean number of conidia produced in the colony at 25 degC after 12 days by haemocytometer; type: functional
[12] = tested on: Monilinia laxa; test: Fungicidal activity against Monilinia laxa isolate MLG1 assessed as mean number of conidia produced in the colony at 25 degC after 12 days by haemocytometer; type: functional
[13] = tested on: Monilinia laxa; test: Fungicidal activity against Monilinia laxa isolate MLP4 assessed as mean mycelial colony diameter at 25 degC after 4 days; type: functional
[14] = tested on: Monilinia laxa; test: Fungicidal activity against Monilinia laxa isolate MLK1 assessed as mean mycelial colony diameter at 25 degC after 4 days; type: functional
[15] = tested on: Monilinia laxa; test: Fungicidal activity against Monilinia laxa isolate MLC2 assessed as mycelial growth at 1 ug/ml at 25 degC after 4 days; type: functional
[16] = tested on: Monilinia laxa; test: Fungicidal activity against Monilinia laxa isolate MLAl8 assessed as reduction in mycelial growth rate at 1 to 10 ug/ml at 31 degC after 5 days; type: functional, organism-based
[17] = tested on: Monilinia laxa; test: Fungicidal activity against Monilinia laxa isolate MLX1 assessed as reduction in mycelial growth rate at 1 to 10 ug/ml at 28 degC after 8 days; type: functional, organism-based
[18] = tested on: Monilinia laxa; test: Fungicidal activity against Monilinia laxa isolate MLK12 assessed as reduction in mycelial growth rate at 1 to 10 ug/ml at 28 degC after 8 days; type: functional, organism-based
[19] = tested on: Monilinia laxa; test: Fungicidal activity against Monilinia laxa isolate MLK5 assessed as reduction in mycelial growth rate at 1 to 10 ug/ml at 28 degC after 8 days; type: functional, organism-based
[20] = tested on: Monilinia laxa; test: Fungicidal activity against Monilinia laxa isolate MLK1 assessed as reduction in mycelial growth rate at 1 to 10 ug/ml at 28 degC after 8 days; type: functional, organism-based
[21] = tested on: Monilinia laxa; test: Fungicidal activity against Monilinia laxa isolate MLAl8 assessed as reduction in mycelial growth rate at 1 to 10 ug/ml at 28 degC after 8 days; type: functional, organism-based
[22] = tested on: Monilinia laxa; test: Fungicidal activity against Monilinia laxa isolate KX4 assessed as reduction in mycelial growth rate at 1 to 10 ug/ml at 31 degC after 5 days; type: functional, organism-based
[23] = tested on: Monilinia laxa; test: Fungicidal activity against Monilinia laxa isolate MLC5 assessed as reduction in mycelial growth rate at 25 degC after 4 days; type: functional, organism-based; settings: isolate MLC5, 96 h
[24] = tested on: Monilinia laxa; test: Fungicidal activity against Monilinia laxa isolate MLBO6 assessed as reduction in mycelial growth rate at 25 degC after 4 days; type: functional, organism-based; settings: isolate MLBO6, 96 h
[25] = tested on: Monilinia laxa; test: Fungicidal activity against Monilinia laxa isolate MLBO5 assessed as reduction in mycelial growth rate at 25 degC after 4 days; type: functional, organism-based; settings: isolate MLBO5, 96 h
[26] = tested on: Monilinia laxa; test: Fungicidal activity against Monilinia laxa isolate KX4 assessed as reduction in mycelial growth rate at 1 to 10 ug/ml at 25 to 28 degC; type: functional, organism-based
[27] = tested on: Monilinia laxa; test: Fungicidal activity against Monilinia laxa isolate MLX5 assessed as reduction in mycelial growth rate at 1 to 10 ug/ml at 25 to 28 degC; type: functional, organism-based
[28] = tested on: Monilinia laxa; test: Fungicidal activity against Monilinia laxa isolate MLK6 assessed as reduction in mycelial growth rate at 1 to 10 ug/ml at 25 to 28 degC; type: functional, organism-based
[29] = tested on: Monilinia laxa; test: Fungicidal activity against Monilinia laxa isolate MLG7 assessed as reduction in mycelial growth rate at 25 degC after 4 days; type: functional, organism-based; settings: isolate MLG7, 96 h
[30] = tested on: Monilinia laxa; test: Fungicidal activity against Monilinia laxa isolate MLP4 assessed as reduction in mycelial growth rate at 1 to 10 ug/ml at 31 degC after 5 days; type: functional, organism-based
[31] = tested on: Monilinia laxa; test: Fungicidal activity against Monilinia laxa isolate MLP4 assessed as virulence in prune fruits assessed as virulence treated 10 min prior to mycelial inoculation at 24 degC after 10 days relative to isolate MLX1by pathogenicity bioassay; type: functional
[32] = tested on: Monilinia laxa; test: Fungicidal activity against Monilinia laxa isolate KX5 assessed as reduction in mycelial growth rate at 25 degC after 4 days; type: functional, organism-based; settings: isolate KX5, 96 h
[33] = tested on: Monilinia laxa; test: Fungicidal activity against Monilinia laxa isolate MLX1 assessed as mean number of conidia produced in the colony at 25 degC after 12 days by haemocytometer; type: functional
[34] = tested on: Monilinia laxa; test: Fungicidal activity against Monilinia laxa isolate MLA1 assessed as reduction in mycelial growth rate at 1 to 10 ug/ml at 31 degC after 5 days; type: functional, organism-based
[35] = tested on: Monilinia laxa; test: Fungicidal activity against Monilinia laxa isolate MLX3 assessed as reduction in mycelial growth rate at 1 to 10 ug/ml at 31 degC after 5 days; type: functional, organism-based
[36] = tested on: Monilinia laxa; test: Fungicidal activity against Monilinia laxa isolate KX1 assessed as reduction in mycelial growth rate at 25 degC after 4 days; type: functional, organism-based; settings: isolate KX1, 96 h
[37] = tested on: Monilinia laxa; test: Fungicidal activity against Monilinia laxa isolate MLX4 assessed as reduction in mycelial growth rate at 25 degC after 4 days; type: functional, organism-based; settings: isolate MLX4, 96 h
[38] = tested on: Monilinia laxa; test: Fungicidal activity against Monilinia laxa isolate MLX2 assessed as reduction in mycelial growth rate at 25 degC after 4 days; type: functional, organism-based; settings: isolate MLX2, 96 h
[39] = tested on: Monilinia laxa; test: Fungicidal activity against Monilinia laxa isolate MLP4 assessed as reduction in mycelial growth rate at 25 degC after 4 days; type: functional, organism-based; settings: isolate MLP4, 96 h
[40] = tested on: Monilinia laxa; test: Fungicidal activity against Monilinia laxa isolate MLP2 assessed as reduction in mycelial growth rate at 25 degC after 4 days; type: functional, organism-based; settings: isolate MLP2, 96 h
[41] = tested on: Monilinia laxa; test: Fungicidal activity against Monilinia laxa isolate MLK12 assessed as reduction in mycelial growth rate at 25 degC after 4 days; type: functional, organism-based; settings: isolate MLK12, 96 h
[42] = tested on: Monilinia laxa; test: Fungicidal activity against Monilinia laxa isolate MLK4A assessed as reduction in mycelial growth rate at 25 degC after 4 days; type: functional, organism-based; settings: 96 h

Compound: COC(=O)Nc1nc2ccccc2[nH]1 [CARBENDAZIM]
- EC50 [1]: 0.05 µg/mL (≈ 0.262 µM)
- EC50 [2]: > 50 µg/mL
- EC50 [3]: > 50 µg/mL
- inhibition [4]: Active
- inhibition [5]: Active
- inhibition [6]: Active
- inhibition [7]: Active
- inhibition [8]: Active
- inhibition [9]: Active
- inhibition [10]: Active
- Activity [11]: 5 /cm2
- Activity [12]: 5.85 /cm2
- Activity [13]: 32.5 mm
- Activity [14]: 30.55 mm
- Activity [15]: 98.28%
- inhibition [16]: Active
- inhibition [17]: inactive
- inhibition [18]: inactive
- inhibition [19]: inactive
- inhibition [20]: inactive
- inhibition [21]: inactive
- inhibition [22]: Active
- EC50 [23]: 0.11 µg/mL (≈ 0.575 µM)
- EC50 [24]: 0.12 µg/mL (≈ 0.628 µM)
- EC50 [25]: 0.07 µg/mL (≈ 0.366 µM)
- inhibition [26]: inactive
- inhibition [27]: inactive
- inhibition [28]: inactive
- EC50 [29]: 0.12 µg/mL (≈ 0.628 µM)
- inhibition [30]: Active
- Activity [31]: 100%
- EC50 [32]: > 50 µg/mL
- Activity [33]: 4 /cm2
- inhibition [34]: Active
- inhibition [35]: Active
- EC50 [36]: 0.06 µg/mL (≈ 0.314 µM)
- EC50 [37]: 0.11 µg/mL (≈ 0.575 µM)
- EC50 [38]: 0.12 µg/mL (≈ 0.628 µM)
- EC50 [39]: > 50 µg/mL
- EC50 [40]: 0.06 µg/mL (≈ 0.314 µM)
- EC50 [41]: > 50 µg/mL
- EC50 [42]: 0.12 µg/mL (≈ 0.628 µM)

— ChEMBL document CHEMBL3046319, “PCR-RFLP detection of the E198A mutation conferring resistance to benzimidazoles in field isolates of Monilinia laxa from Greece” (Crop Prot, 2012)
